{
  "source": "patent US20260240805A1",
  "about": "“ENTACTOGEN-ASSISTED THERAPY FOR ALCOHOL USE DISORDER AND ADDICTION-RELATED CONDITIONS AND COMORBIDITIES” (Solvonis Therapeutics Ireland Holdings Limited, priority 2021, published 2026)",
  "key": {"[1]": {"system": "alcohol relapse", "conditions": "only in conjunction with psychosocial interventions; cited from earlier work"}, "[2]": {"system": "AUD", "conditions": "early uncontrolled studies; cited from earlier work"}, "[3]": {"conditions": "cited from earlier work"}, "[4]": {"biological_target": "CYP3A4 (Homo sapiens, UniProt P08684)", "sequence (P08684 whole entry)": "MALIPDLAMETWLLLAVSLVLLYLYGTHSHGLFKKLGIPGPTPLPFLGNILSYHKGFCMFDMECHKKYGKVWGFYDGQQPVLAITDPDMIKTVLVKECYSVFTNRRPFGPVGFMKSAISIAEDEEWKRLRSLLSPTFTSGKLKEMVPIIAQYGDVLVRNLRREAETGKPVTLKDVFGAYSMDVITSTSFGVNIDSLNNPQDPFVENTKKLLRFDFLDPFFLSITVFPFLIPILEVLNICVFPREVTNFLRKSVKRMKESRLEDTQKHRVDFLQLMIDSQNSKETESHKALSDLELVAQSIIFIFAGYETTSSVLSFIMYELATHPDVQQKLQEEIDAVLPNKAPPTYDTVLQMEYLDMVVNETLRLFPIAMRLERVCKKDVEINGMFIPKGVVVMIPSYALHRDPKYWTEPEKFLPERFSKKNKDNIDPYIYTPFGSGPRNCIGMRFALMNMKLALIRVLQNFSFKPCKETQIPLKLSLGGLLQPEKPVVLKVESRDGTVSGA", "conditions": "single dose of MDMA of 1.5 mg/kg; cited from earlier work"}, "[5]": {"conditions": "cited from earlier work", "remark": "listed apart in the source"}, "[6]": {"system": "patients with AUD", "assay": "Physiological measures, SUDS and Drug Effects during MDMA sessions (Example 8)", "assay_type": "in vivo, human", "protocol": "(§1) Dosing with MDMA occurred twice during the eight-week course on weeks 3 and 6.\nPhysiological and tolerability effects during MDMA sessions: In total, 26 drug-assisted psychotherapy sessions with MDMA were administered during the trial. Temperature, blood pressure and heart rate were measured at t=0, before taking MDMA, then half-hourly up to t=2 hours, then hourly thereafter for a minimum of 6-hours from the time of dosing (see FIG. 7).\nSubjective Units of Distress (SUDS) and Participant report of Drug Effects were also measured, hourly, throughout the MDMA sessions (see FIG. 7). […] Participants gave their own subjective score (0-10) of whether they felt Drug Effects, and the therapists also recorded their own objective score of how “altered” the participant appeared. There was no significant difference between Observers' and Participants' Drug Effects scores. Drug Effects rose expectedly over the first two hours, with a notable further increase after the booster dose was given at t=2 hours, and a subsequent plateau then decline over the following six hours."}, "[7]": {"system": "individuals with PTSD", "conditions": "cited from earlier work"}, "[8]": {"system": "patients with AUD", "assay": "Profile Of Mood States (POMS), seven-day follow-up after MDMA sessions (Example 8)", "assay_type": "in vivo, human", "conditions": "daily for seven days after each MDMA session; 14 participants, 26 sessions", "source_text": "(§2) Following the end of the eight-week therapeutic course, participants carried out additional follow-up questionnaires.\nSeven-day follow-up after MDMA sessions: Considerable medical literature and the popular press report the anecdotal observation of ecstasy users experiencing an acute ‘come-down’ effect and a drop in mood in the days after using the drug recreationally. In order to measure this prospectively with clinical MDMA, we measured participants' mood states by daily Profile Of Mood States (POMS) measurements for seven days after each MDMA session (see FIG. 9). Positive scores represent depressed affect, zero represents no change in mood/affect and results below zero represent a positively felt mood."}, "[9]": {"conditions": "cited from earlier work", "remark": "listed apart in the source"}, "[10]": {"system": "patients with AUD", "assay": "Adverse events and tolerability (Example 8)", "assay_type": "in vivo, human", "protocol": "This Example details an open-label, within-subjects, safety and tolerability feasibility study that was conducted in 14 patients aged 18-65 years old diagnosed with AUD who had recently undergone detoxification, and received MDMA-assisted therapy.\nas §1"}, "[11]": {"system": "patients with AUD", "assay": "Suicidality, C-SSRS (Example 8)", "assay_type": "in vivo, human", "conditions": "during the course of the study", "source_text": "as §2\nSuicidality. Participants underwent the C-SSRS at screening, baseline, throughout the eight-week therapy course, in the week after each MDMA session and at the three-, six-, and nine-month follow-up visits."}, "[12]": {"system": "patients with AUD", "assay": "Drinking behavior (TLFB, units of alcohol per week), open-label MDMA-assisted therapy study in AUD post-detox (Example 8)", "assay_type": "in vivo, human"}, "[13]": {"conditions": "doses of 100-125 mg; cited from earlier work"}, "[14]": {"system": "patients diagnosed with AUD", "assay": "Depression and anxiety levels, FIG. 3 and FIG. 4", "assay_type": "in vivo, human", "conditions": "patients remaining at 9 months; 100% at screening", "protocol": "Prior to undergoing the disclosed methods, specifically during the screening session, 12 patients were assessed for levels of depression. […] Directly after going through the detoxification process (noted as “baseline” in FIG. 3), one patient had mild depression, two had moderate depression, zero had moderately severe depression, and two had severe depression (out of 11 patients remaining in the study). The patients were then reassessed at 3, 6, and 9 months post-baseline (i.e., after completing a detoxification course, and prior to beginning the MDMA-assisted therapy regimen), wherein it was discovered that, at 3 months, two had mild depression, one had moderate depression, three had moderately severe depression, and one had severe depression (out of 9 patients remaining in the study); at 6 months, no patients suffered from mild or moderate depression, two had moderate severe depression, and one had severe depression (out of 6 patients remaining in the study); finally, at 9 months, one patient had mild depression, one had moderate depression, and one had moderate severe depression, with none having severe depression.\nPrior to undergoing the disclosed methods, specifically during the screening session, 12 patients were assessed for levels of anxiety. […]"}, "[15]": {"conditions": "cited from earlier work", "remark": "listed apart in the source"}, "[16]": {"system": "patients with AUD", "assay": "PHQ-9, GAD-7, psychosocial functioning and quality of life measures (Example 8)", "assay_type": "in vivo, human"}, "[17]": {"conditions": "nine-month follow-up end point, of 14 participants"}},
  "note": "“Also recorded” adds a separate entry of the source. Read-outs that look alike come from different tables or passages of the source.",
  "data": [
    {"smiles": "CC(=O)NCCCS(=O)(=O)O", "note": "[acamprosate]", "values": [
      {"measurement": "effect in relapse prevention", "setting": "[1]", "value": "only minor positive effects in relapse prevention"}
    ]},
    {"smiles": "CCN(CC)C(=O)[C@@H]1C=C2c3cccc4[nH]cc(c34)C[C@H]2N(C)C1", "note": "[LSD]", "values": [
      {"measurement": "abstinence rates", "setting": "[2]", "value": "30-50%"}
    ]},
    {"smiles": "CNC(C)Cc1ccc2c(c1)OCO2", "note": "(stereo not shown) [MDMA base]", "values": [
      {"measurement": "solubility in water", "setting": "[3]", "value": "insoluble in water"}
    ]},
    {"smiles": "O=C1CC[C@@]2(O)[C@H]3Cc4ccc(O)c5c4[C@@]2(CCN3CC2CC2)[C@H]1O5", "note": "[naltrexone]", "values": [
      {"measurement": "effect in relapse prevention", "setting": "[1]", "value": "only minor positive effects in relapse prevention"}
    ]},
    {"smiles": "CNC(C)Cc1ccc2c(c1)OCO2", "note": "(stereo not shown) [MDMA, 1-(1,3-benzodioxol-5-yl)-N-methylpropan-2-amine]", "values": [
      {"measurement": "CYP3A4 activity", "setting": "[4]", "value": "decrease in CYP3A4 activity"},
      {"measurement": "time to peak plasma concentration", "setting": "[5]; humans, doses 100-125 mg", "value": "2 to 3", "unit": "h"},
      {"measurement": "elimination half-life", "setting": "[5]; similar results for doses 50-125 mg", "value": "7 to 9", "unit": "h"},
      {"measurement": "temperature, blood pressure and heart rate during MDMA sessions", "setting": "[6]; 26 sessions, except for one participant", "value": "remained within normal limits"},
      {"measurement": "Drug Effects scores (0-10)", "setting": "[6]; by the end of the MDMA session day", "value": "all drug effects had returned to baseline"},
      {"measurement": "Subjective Units of Distress (SUDS)", "setting": "[6]; hourly during the MDMA session", "value": "subsequently reduced during the course of the session"},
      {"measurement": "rise in blood pressure, temperature and heart rate over the course of the MDMA session", "setting": "[6]; in vivo", "value": "mild, transient rise"},
      {"measurement": "neurocognitive impairments", "setting": "[6]; weeks and months following participation", "value": "No participants reported any significant neurocognitive impairments"},
      {"measurement": "effect size, self-reported improvement", "setting": "[7]; 12 subjects, Oehen 2013", "value": 1.1},
      {"measurement": "symptom relief, long-term follow-up", "setting": "[7]; chronic, treatment-resistant PTSD, Mithoefer 2010, 2013", "value": "statistically and clinically-significant gains in symptom relief with no subjects reporting harm"},
      {"measurement": "safety and tolerability", "setting": "[7]; phase 3, severe PTSD, even with comorbidities", "value": "safe and well-tolerated"},
      {"measurement": "efficacy vs therapy with inactive placebo", "setting": "[7]; phase 3, severe PTSD, Mitchell 2021", "value": "highly efficacious"},
      {"measurement": "POMS mood disturbance", "setting": "[8]", "value": "no evidence of any mood disturbance; also recorded: sustained a positive mood for seven days"},
      {"measurement": "time of peak subjective effects", "setting": "[9]; 100 mg MDMA, healthy volunteers, brain imaging studies", "value": 100, "unit": "min"},
      {"measurement": "duration of subjective effects", "setting": "[9]; 100 mg MDMA, healthy volunteers", "value": "approximately 4.5 hours"},
      {"measurement": "time of peak subjective effects", "setting": "[9]; Harris 2002", "value": "90 to 120", "unit": "min"},
      {"measurement": "time to return to baseline values", "setting": "[9]; Harris 2002", "value": "5 to 6", "unit": "h"},
      {"measurement": "time to subjective effects", "setting": "[9]; Harris 2002", "value": "approximately 45 mins"},
      {"measurement": "duration of effects", "setting": "[9]; one dose", "value": "4 to 5", "unit": "h"},
      {"measurement": "onset of action", "setting": "[9]; patients with PTSD, after the initial dose", "value": "45 to 75", "unit": "min"},
      {"measurement": "time of peak drug effects", "setting": "[9]; patients with PTSD", "value": "2 to 5", "unit": "h"},
      {"measurement": "duration of effects", "setting": "[9]; with the booster dose", "value": "5 to 6", "unit": "h"},
      {"measurement": "tolerability of MDMA treatment", "setting": "[10]; AUD post-detox, 187.5 mg each session", "value": "well-tolerated by all participants"},
      {"measurement": "desire to use illicit ecstasy/illicit MDMA", "setting": "[10]; following clinical MDMA", "value": "No participants reported any desire to use illicit ecstasy/illicit MDMA"},
      {"measurement": "psychotic symptoms", "setting": "[10]; in vivo", "value": "No psychotic symptoms were observed"},
      {"measurement": "C-SSRS suicidal ideation, intent or plans or self-harm behavior", "setting": "[11]", "value": "No participants reported current suicidal ideation, intent or plans or self-harm behavior"},
      {"measurement": "decrease in alcohol consumption", "setting": "[12]; 3 months post-detox vs pre-detox", "value": 87.1, "unit": "%"},
      {"measurement": "decrease in alcohol consumption", "setting": "[12]; 6 months post-detox vs pre-detox", "value": 71, "unit": "%"},
      {"measurement": "units of alcohol per week", "setting": "[12]; 6 months post-detox, 130.6 units per week pre-detox", "value": "38.0 units of alcohol per week"},
      {"measurement": "decrease in alcohol consumption", "setting": "[12]; 9 months post-detox vs pre-detox", "value": 85.7, "unit": "%"},
      {"measurement": "average units of alcohol consumption per week", "setting": "[12]; 9 months post-detox, 130.6 units per week pre-detox", "value": 18.7, "unit": "units/week"},
      {"measurement": "outcomes of other comorbid addictions (SUDs and BAs)", "setting": "[12]; along the course of treatment", "value": "unexpectedly improved outcomes of other comorbid addictions"},
      {"measurement": "participants drinking fewer than 14 units of alcohol per week", "setting": "[12]; [17]", "value": 11, "unit": "participants"},
      {"measurement": "participants relapsed to drinking more than 14 units of alcohol per week", "setting": "[12]; [17]", "value": "three"},
      {"measurement": "participants totally abstinent from alcohol", "setting": "[12]; [17]", "value": "nine"},
      {"measurement": "participants drinking in excess of 14 units of alcohol a week", "setting": "[12]; over 9 months, 75% in the Outcomes Study without MDMA", "value": 21, "unit": "%"},
      {"measurement": "increase in diastolic blood pressure", "setting": "[13]", "value": "14.4-25 mmHg"},
      {"measurement": "increase in heart rate", "setting": "[13]", "value": "26-30 bpm"},
      {"measurement": "patients found to have anxiety", "setting": "[14]", "value": "about 67%"},
      {"measurement": "patients found to have depression", "setting": "[14]", "value": 50, "unit": "%"},
      {"measurement": "serious adverse reaction", "setting": "[15]; 125 mg MDMA, third of three MDMA-assisted sessions, one individual", "value": "increased frequency of ventricular extrasystoles (PVCs)"},
      {"measurement": "commonly reported effects", "setting": "[15]; Phase 1 studies in healthy volunteers", "value": "elevation in blood pressure and heart rate, increased anxiety or dysphoria, and dilated pupils"},
      {"measurement": "PHQ-9 and GAD-7 scores", "setting": "[16]; after screening and baseline time points", "value": "reduction in both anxiety and depression"},
      {"measurement": "psychosocial functioning", "setting": "[16]; in vivo", "value": "improved across the cohort"},
      {"measurement": "quality of sleep, quality of life, compassion and empathy scales", "setting": "[16]; in vivo", "value": "demonstrating benefits and improvements"}
    ]}
  ]
}
